Data from patent US20070249590A1, “Substituted indolo[2,3-a]pyrrolo[3,4-c]carbazole compounds useful in treating kinase disorders” (priority 2005, published 2007).

Target: T1, JAK3 (JH1 and JH2 domain) (Homo sapiens, UniProt P52333)
T1 sequence (P52333 521-1111 limits assumed): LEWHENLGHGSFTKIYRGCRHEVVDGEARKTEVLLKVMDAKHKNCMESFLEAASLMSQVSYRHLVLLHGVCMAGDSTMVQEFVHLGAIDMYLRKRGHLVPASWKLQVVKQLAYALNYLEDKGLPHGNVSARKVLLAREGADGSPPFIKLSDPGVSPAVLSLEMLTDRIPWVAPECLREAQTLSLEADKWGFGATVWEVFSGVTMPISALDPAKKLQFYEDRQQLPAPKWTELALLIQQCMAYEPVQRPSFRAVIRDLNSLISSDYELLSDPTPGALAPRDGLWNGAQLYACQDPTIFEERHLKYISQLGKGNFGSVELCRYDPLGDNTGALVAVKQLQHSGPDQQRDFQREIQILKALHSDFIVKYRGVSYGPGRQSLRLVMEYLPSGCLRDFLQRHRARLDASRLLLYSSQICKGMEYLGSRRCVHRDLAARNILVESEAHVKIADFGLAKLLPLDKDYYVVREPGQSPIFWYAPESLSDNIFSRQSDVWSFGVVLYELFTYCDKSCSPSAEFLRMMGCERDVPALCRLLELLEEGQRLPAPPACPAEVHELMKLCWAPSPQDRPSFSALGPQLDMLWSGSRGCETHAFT
Test: JAK3 Kinase Assay (ELISA of peptide substrate phosphorylation)
Format: biochemical
Conditions: purified JAK3 enzyme, 10 μM ATP, biotinylated peptide substrate, 1 hour at room temperature
Procedure, shortened: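 Sf21-baculovirus-expressed JAK3 (JH1+JH2), glutathione-bead purified, with biotinylated peptide substrate (in buffer containing 10 μM ATP) in HEPES pH 7.5/MgCl2/DTT, 1 h RT. Product was captured on Neutravidin, detected with HRP anti-phosphotyrosine (PY99)/TMB, OD 450/650 nm. Triplicate 16-point half-log series from 200 μM gave IC50; otherwise % inhibition at 1 μM.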

Compared with COCCNC(=O)C1(O)Cn2c3ccccc3c3c4c(c5c6ccccc6n(c5c32)CC1O)C(=O)NC4=O (centres unmarked) [Cpd 124, 12,13-{2-[(2-methoxy-ethyl)carbamoyl]-2,3-dihydroxy-butan-1,4-yl}-12,13-dihydro-5,7-dioxo-6H-indolo[2,3-a]pyrrolo[3,4-c]carbazole], O=C1NC(=O)c2c1c1c3ccccc3n3c1c1c2c2ccccc2n1CC(O)(C(=O)NCCc1cccs1)C(O)C3 (centres unmarked) [Cpd 128, 12,13-{2-[(2-thien-2-yl-ethyl)carbamoyl]-2,3-dihydroxy-butan-1,4-yl}-12,13-dihydro-5,7-dioxo-6H-indolo[2,3-a]pyrrolo[3,4-c]carbazole] is 1.8-fold higher in IC50: 52 nM for the first, 94 nM for the second.

Going from CN1CCN(C(=O)C2(O)Cn3c4ccccc4c4c5c(c6c7ccccc7n(c6c43)CC2O)C(=O)NC5=O)CC1 (centres unmarked) [Cpd 125, 12,13-{2-[(4-methyl-piperazin-1-yl)carbonyl]-2,3-dihydroxy-butan-1,4-yl}-12,13-dihydro-5,7-dioxo-6H-indolo[2,3-a]pyrrolo[3,4-c]carbazole] to O=C1NC(=O)c2c1c1c3ccccc3n3c1c1c2c2ccccc2n1CC(O)(C(=O)N1CCN(CCO)CC1)C(O)C3 (centres unmarked) [Cpd 130], the IC50 rises from 27 nM to 48 nM (1.8-fold). The first is the more potent here.

CN(C)CCCN1CCN(C(=O)C2(O)Cn3c4ccccc4c4c5c(c6c7ccccc7n(c6c43)CC2O)C(=O)NC5=O)CC1 (centres unmarked) [Cpd 126, 12,13-(2-{[4-(3-dimethylamino-prop-1-yl)piperazin-1-yl]carbonyl}-2,3-dihydroxy-butan-1,4-yl)-12,13-dihydro-5,7-dioxo-6H-indolo[2,3-a]pyrrolo[3,4-c]carbazole] and O=C1NC(=O)c2c1c1c3ccccc3n3c1c1c2c2ccccc2n1CC(O)(C(=O)N1CCN(CCN2CCOCC2)CC1)C(O)C3 (centres unmarked) [Cpd 134, 12,13-(2-{[4-(2-morpholin-4-yl-ethyl)piperazin-1-yl]carbonyl}-2,3-dihydroxy-butan-1,4-yl)-12,13-dihydro-5,7-dioxo-6H-indolo[2,3-a]pyrrolo[3,4-c]carbazole] are within 1.5-fold of each other in IC50: 55 nM for the first, 53 nM for the second.

Going from O=C1NC(=O)c2c1c1c3ccccc3n3c1c1c2c2ccccc2n1CC(O)(C(=O)NCCCN1CCCC1=O)C(O)C3 (centres unmarked) [Cpd 127, 12,13-(2-{[3-(2-oxo-pyrrolidin-1-yl)prop-1-yl]carbamoyl}-2,3-dihydroxy-butan-1,4-yl)-12,13-dihydro-5,7-dioxo-6H-indolo[2,3-a]pyrrolo[3,4-c]carbazole] to O=C1NC(=O)c2c1c1c3ccccc3n3c1c1c2c2ccccc2n1CC(O)(C(=O)N1CCC(O)CC1)C(O)C3 (centres unmarked) [Cpd 132, 12,13-{2-[(4-hydroxy-piperidin-1-yl)carbonyl]-2,3-dihydroxy-butan-1,4-yl}-12,13-dihydro-5,7-dioxo-6H-indolo[2,3-a]pyrrolo[3,4-c]carbazole], the IC50 falls from 48 nM to 28 nM (1.7-fold).

O=C1NC(=O)c2c1c1c3ccccc3n3c1c1c2c2ccccc2n1CC(O)(C(=O)N1CCN(c2ccc(O)cc2)CC1)C(O)C3 (centres unmarked) [Cpd 129, 12,13-(2-{[4-(4-hydroxy-phenyl)piperazin-1-yl]carbonyl}-2,3-dihydroxy-butan-1,4-yl)-12,13-dihydro-5,7-dioxo-6H-indolo[2,3-a]pyrrolo[3,4-c]carbazole] and O=C1NC(=O)c2c1c1c3ccccc3n3c1c1c2c2ccccc2n1CC(O)(C(=O)N1CCN(c2ccccn2)CC1)C(O)C3 (centres unmarked) [Cpd 131, 12,13-{2-[(4-pyridin-2-yl-piperazin-1-yl)carbonyl]-2,3-dihydroxy-butan-1,4-yl}-12,13-dihydro-5,7-dioxo-6H-indolo[2,3-a]pyrrolo[3,4-c]carbazole] are within 1.5-fold of each other in IC50: 67 nM for the first, 78 nM for the second.

Compound O=C1NC(=O)c2c1c1c3ccccc3n3c1c1c2c2ccccc2n1CC(O)(C(=O)N1CCN(CC(=O)N2CCCC2)CC1)C(O)C3 (centres unmarked) [Cpd 133, 12,13-(2-{[4-(pyrrolidin-1-yl-carbonylmethyl)piperazin-1-yl]carbonyl}-2,3-dihydroxy-butan-1,4-yl)-12,13-dihydro-5,7-dioxo-6H-indolo[2,3-a]pyrrolo[3,4-c]carbazole] has an IC50 of 54 nM.
